Results on ten molecules are retold here after article PMC4766629, “Biochemical and functional characterization of Plasmodium falciparum DNA polymerase δ” (Malaria Journal, 2016).

One experiment has as its target T1, PfPolδ-cat (Plasmodium falciparum, UniProt P30315).
T1 construct: The 3285-bp full-length PfPolδ-cat of P. falciparum K1 strain was successfully amplified and cloned; thioredoxin (N); His6 (C); made in house; host or cells: Escherichia coli LMG194
Put plainly: DNA polymerase assay, inhibitory effects of compounds on PfPolδ-cat activity. It counts as biochemical. The protocol:
DNA polymerase activity was assayed using activated calf thymus DNA (CT-DNA) (Sigma-Aldrich, MA, USA) as substrate. DNA polymerase assay was conducted in a 50-μl reaction mixture containing 10 μg of activated CT-DNA, 20 mM potassium phosphate buffer pH 8, 10 mM MgCl2, 2 mM DTT, 10 μg BSA, 50 μM each of dGTP, dATP and dCTP, 1 μM dTTP, 2.5 μM [α-^32P]dTTP (800 Ci/mmol; PerkinElmer, MA, USA), and 42 nM PfPolδ-cat. After incubation for 1 h at 37 °C, the reactions were terminated by adding a 250-μl mixture of 20 mM EDTA, 0.1 mg/ml BSA and 100 μl of 50 % trichloroacetic acid (TCA), followed by sedimentation. The precipitate was then washed twice with 1 % TCA and [^32P]dTMP incorporation was measured in a 1450 MicroBeta® Trilux Liquid Scintillation Counter (Perkin Elmer). One unit of DNA polymerase activity is defined as the amount of enzyme that catalyzes the incorporation of 1 nmol of dTMP into DNA in 1 h at 37 °C.
Inhibitory activity of 11 compounds consisting of substrate and nucleotide analogs and potential active site occupiers of PfPolδ-cat were compared with known Pol δ inhibitors, aphidicolin and N-ethylmaleimide (NEM). Stock solution (6 mM) of aphidicolin was prepared in dimethylsulfoxide (DMSO) and that of NEM (400 mM) in absolute ethanol. Stock solutions (10 mM) of N^2-(4-butylphenyl)-2′-deoxyguanosine 5′-triphosphate (BuPdGTP), N^2-(4-butylphenyl)- 2′-deoxyguanosine 5′-(P^2,P^3-carbonyltriphosphonate) (BuPdGMPPCOP), N^2-ethyl-2′-deoxyguanosine 5′-[…] (EtdGTP), N^2-hexyl-2′-deoxyguanosine 5′-triphosphate (HexdGTP) and Acyclovir triphosphate (ACV-TP) were prepared in sterile distilled water, while those of 2-amino-4-chloro-6-(3,4-dichloroanilino)pyrimidine, 2-amino-4-chloro-6-(3,5-dichloroanilino)pyrimidine, N^2-(3,4-dichlorobenzyl)guanine (DCBG), N^2-(3-fluoro,4-chlorobenzyl)guanine, 3-(4-hydroxybutyl)-6-(3-ethyl-4-methylanilino)uracil (HB-EMAU), and 7-acetoxypentyl-(3,4-dichlorobenzyl)guanine (7-acetoxypentyl-DCBG) were prepared in DMSO. All stock solutions were stored at −20 °C until used. Test concentrations of compounds were prepared by diluting stock solution with 10 mM Tris–HCl pH 8.0 and evaluated in triplicate. Compounds were added directly to the reaction mixtures except for NEM that was pre-incubated with enzyme for 30 min on ice before addition to the reaction mixture. Polymerase activity assays were conducted as described above.

The test system of experiment [1] is Plasmodium falciparum K1 strain. Put plainly: Inhibition of intra-erythrocytic P. falciparum growth in culture (SYBR Green I-based assay). The following applies: K1 strain (chloroquine- and pyrimethamine-resistant), in vitro growth, triplicate. The experiment is classed as cell-based. Here is the method: Plasmodium falciparum strain K1, a chloroquine- and pyrimethamine-resistant strain from Thailand [28] was cultivated in RPMI 1640 medium (Invitrogen™, CA, USA) supplemented with 10 % human serum and human red blood cell (RBC) at 37 °C under an atmosphere of 5 % CO2. Plasmodium falciparum cultures containing mostly trophozoite and schizont stages were harvested when parasitaemia was >10 % by centrifugation at 500×g for 10 min at 25 °C.
Plasmodium falciparum K1 strain was synchronized at ring stage using 5 % D-sorbitol treatment and then mixed with culture medium containing RPMI 1640 medium supplement with 10 % human serum. Twofold serial dilutions of each test compound were evaluated in triplicate. Parasite growth was determined by a SYBR Green I-based assay. Dose–response curves and IC50 values were obtained using SigmaPlot 12.0.

Details of experiment [2]: method as in PMID 21684746. The following applies: potent antibiotic; cited from earlier work.
On the set-up of experiment [3]: method as in PMID 21684746. Particulars: IP dose of 60 mg/kg; cited from earlier work.
The mark [4] stands for this setting: recombinant PfPolδ-cat DNA polymerase activity, activated CT-DNA, 1 h at 37 °C, triplicate, read-out: IC50 PfPolδ-cat.

Molecules are shown by their SMILES. Converted amounts (≈) assume the structure as drawn. Where two headings read alike, the source gives them in different places.

T1 sequence (P30315 whole entry): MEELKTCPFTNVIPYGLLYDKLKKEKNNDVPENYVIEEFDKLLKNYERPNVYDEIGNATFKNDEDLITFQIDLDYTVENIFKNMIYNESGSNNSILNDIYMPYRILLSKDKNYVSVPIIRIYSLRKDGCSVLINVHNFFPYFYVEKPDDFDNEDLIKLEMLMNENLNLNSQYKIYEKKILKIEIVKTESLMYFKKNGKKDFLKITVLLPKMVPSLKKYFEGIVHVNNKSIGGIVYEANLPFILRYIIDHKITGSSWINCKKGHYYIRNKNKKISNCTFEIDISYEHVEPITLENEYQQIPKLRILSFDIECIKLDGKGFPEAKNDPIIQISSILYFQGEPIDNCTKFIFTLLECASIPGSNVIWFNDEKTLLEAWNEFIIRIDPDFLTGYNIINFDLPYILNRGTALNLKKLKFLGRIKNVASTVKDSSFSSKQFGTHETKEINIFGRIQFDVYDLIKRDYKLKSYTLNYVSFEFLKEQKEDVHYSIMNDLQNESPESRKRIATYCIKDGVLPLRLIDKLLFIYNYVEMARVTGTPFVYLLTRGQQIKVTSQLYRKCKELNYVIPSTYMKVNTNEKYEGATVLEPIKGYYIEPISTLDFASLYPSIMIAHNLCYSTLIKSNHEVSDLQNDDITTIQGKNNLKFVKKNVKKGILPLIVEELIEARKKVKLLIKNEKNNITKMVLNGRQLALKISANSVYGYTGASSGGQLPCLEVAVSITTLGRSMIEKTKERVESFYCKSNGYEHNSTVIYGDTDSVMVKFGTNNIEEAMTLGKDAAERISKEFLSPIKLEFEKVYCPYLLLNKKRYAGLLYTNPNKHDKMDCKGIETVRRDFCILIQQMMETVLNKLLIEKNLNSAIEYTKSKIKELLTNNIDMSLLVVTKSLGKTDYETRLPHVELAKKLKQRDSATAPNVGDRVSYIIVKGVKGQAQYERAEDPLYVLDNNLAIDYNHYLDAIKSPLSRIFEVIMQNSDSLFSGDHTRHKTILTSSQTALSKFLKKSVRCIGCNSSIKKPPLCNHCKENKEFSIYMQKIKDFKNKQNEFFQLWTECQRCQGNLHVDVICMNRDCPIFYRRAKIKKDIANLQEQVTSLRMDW

One may read the IC50 as the point on the concentration scale where inhibition reaches its midpoint. In the case of `Nc1nc(Cl)cc(Nc2ccc(Cl)c(Cl)c2)n1` [2-amino-4-chloro-6-(3′,4′-dichloroanilino)pyrimidine], the IC50 was 104 ± 5.6 µM on PfPolδ-cat (setting [4]) and 3.8 ± 0.3 µM in experiment [1] (Plasmodium falciparum).

Turning to `Nc1nc(Cl)cc(Nc2cc(Cl)cc(Cl)c2)n1` [2-amino-4-chloro-6-(3′, 5′-dichloroanilino)pyrimidine], the values for the half-maximal inhibitory concentration (IC50) (at PfPolδ-cat (setting [4]); in experiment [1] (Plasmodium falciparum)) were 185 ± 7.7 µM and 34.4 ± 0.4 µM, respectively.

By MIC is commonly meant the lowest concentration that inhibits growth of the organism. With `CC(=O)OCCCCCn1cnc2nc(NCc3ccc(Cl)c(Cl)c3)[nH]c(=O)c21` [7-acetoxypentyl-DCBG, 7-acetoxypentyl-(3,4-dichlorobenzyl)guanine], the MIC in experiment [2] is 1.25 µg/mL (≈ 2.85 µM). Moreover, the IC50 at PfPolδ-cat (setting [4]) amounted to 55 ± 3.4 µM; in experiment [1], 4.1 ± 0.2 µM. Besides, in experiment [3], the “mice survived after treatment” value was 80%.

In the case of `Nc1nc2c(ncn2COCCOP(=O)(O)OP(=O)(O)OP(=O)(O)O)c(=O)[nH]1` [Acyclovir triphosphate], the IC50 in experiment [1] (Plasmodium falciparum) worked out at 347 ± 8.3 µM.

With `CCCCc1ccc(Nc2nc3c(ncn3C3CC(O)C(COP(=O)(O)OP(=O)(O)C(=O)P(=O)(O)O)O3)c(=O)[nH]2)cc1` (centres unmarked) [BuPdGMPPCOP, N^2-(4-butylphenyl)-2′-deoxyguanosine 5′-(P^2,P^3-carbonyltriphosphonate)], at PfPolδ-cat (recombinant PfPolδ-cat DNA polymerase activity, 100 μM compound), the “IC50 PfPolδ-cat (Inactive = <20 % inhibition at 100 μM)” value was “Inactive^a”. In experiment [1], this molecule registered an IC50 of 173 ± 2.7 µM.

Consider `CCCCc1ccc(Nc2nc3c(ncn3[C@H]3C[C@H](O)[C@@H](COP(=O)(O)OP(=O)(O)OP(=O)(O)O)O3)c(=O)[nH]2)cc1` [BuPdGTP, N^2-(4-butylphenyl)-2′-deoxyguanosine 5′-triphosphate], for which the IC50 on PfPolδ-cat (setting [4]) is 38 ± 1.7 µM; in experiment [1] (Plasmodium falciparum), 85.6 ± 3.7 µM.

For `O=c1[nH]c(NCc2ccc(Cl)c(Cl)c2)nc2nc[nH]c12` [DCBG, N^2-(3,4-dichlorobenzyl)guanine], it took 8.8 ± 0.5 µM to reach half-maximal inhibition in experiment [1] (Plasmodium falciparum) (IC50).

For `CCCCCCNc1nc2c(ncn2[C@H]2C[C@H](O)[C@@H](COP(=O)(O)OP(=O)(O)OP(=O)(O)O)O2)c(=O)[nH]1` [HexdGTP, N^2-hexyl-2′-deoxyguanosine 5′-triphosphate], the concentration for half-maximal inhibition (IC50) in experiment [1] (Plasmodium falciparum) was determined as 86.4 ± 0.2 µM.

The molecule `O=c1[nH]c(NCc2ccc(Cl)c(F)c2)nc2nc[nH]c12` [N^2-(3-fluoro,4-chlorobenzyl)guanine] had an IC50 in experiment [1] (Plasmodium falciparum) of 7.4 ± 0.3 µM.

With `C[C@@]1(CO)[C@H](O)CC[C@@]2(C)[C@H]1CC[C@H]1C[C@@H]3C[C@@]12CC[C@]3(O)CO` [aphidicolin, reference compound], at PfPolδ-cat, the IC50 came to 11.8 µM.
